Laboratory results reported in patent publication US11058668B2 (EIDOS THERAPEUTICS, INC., priority 2018, dated 2021).
Where two headings read alike, the source gives them in different places.

Assays:
[1] = Phase 1 (AG10-001) multiple ascending dose pharmacokinetics; type: in vivo, human; settings: for Cmax / Tmax / AUC(0-t): human, plasma, oral, geometric mean; for AUC(0-t): read-out: AUC0-12
Description: Quantitation was performed using a weighted 1/x^2 linear least squares regression analysis generated from calibration standards prepared on the day of extraction. […]

TTR in human serum = biological target: T1, TTR in human serum (Homo sapiens, UniProt P02766); test: FPE assay in human serum; type: binding; settings: whole human serum, FPE concentration-effect
T1 construct: pooled human serum (prepared from human male AB plasma, Sigma; catalog no; H4522; TTR concentration 5 μM); tissue Sigma H4522; host or cells: pooled human serum from human male AB plasma
Description: FPE assay for binding TTR in buffer and human or dog serum. […] The FPE probe is a thioester TTR ligand that is not fluorescent by itself, however upon binding to the T4 binding site of TTR it covalently modifies lysine 15 (K15), creating a fluorescent conjugate. Ligands that bind to the T4 site of TTR will decrease FPE probe binding as observed by lower fluorescence. […] The change in fluorescence (λex=328 nm and λem=384 nm) were monitored using a microplate spectrophotometer reader (SpectraMax M5) for 6 hr at rt. […] The change in fluorescence (λex=328 nm and λem=384 nm) were monitored using a microplate spectrophotometer reader (SpectraMax M5) for 6 hr at rt.

TTR [2] = biological target: T2, TTR (Homo sapiens, UniProt P02766, V50M); test: Phase 2 study in ATTR-CM patients, serum TTR concentration (ARUP Prealbumin assay); type: in vivo; settings: 800 mg b.i.d., V30M
T2 construct: monitoring TTR serum concentrations in trial participants; from tissue; host or cells: serum / plasma of ATTR-CM patients
Description: (§1) Screening and randomization will be followed by a 28-day blinded, placebo-controlled treatment period. Approximately 45 subjects are planned to enroll in the Phase 2 study.
(§2) An ARUP Prealbumin assay was also used to analyze TTR blood serum concentration in the MAD cohorts tested. ARUP analyzes samples for prealbumin using the prealbumin reagent kit provided by Roche Diagnostics and run on the Roche Diagnostics c702 module. Lowest reportable limit is 3 mg/dL.
(§3) The phase 2 clinical study was performed essentially as described in Example 3. A total of 49 patents were included instead of 45: 16 receiving 400 mg bid; 16 receiving 800 mg bid; and 17 receiving placebo.
(§4) TTR stabilization was measured ex vivo using the FPE and Western blot assays described at the beginning of the examples section. TTR stabilization was measured in vivo by monitoring TTR serum concentrations in trial participants.

TTR [3] = test: as above; type: in vivo, human; settings: for Blood Serum TTR Concentration, Average Change: V122I; for Blood Serum TTR Concentration, Average Change (baseline to day 28): all genotypes, ATTR-CM patients
Description: as §1, §2, §3, §4

tetrameric TTR [4] = biological target: T3, tetrameric TTR (Homo sapiens, UniProt P02766, V50M); test: Phase 2 study, Western blot of tetrameric TTR ex vivo; type: in vivo; settings: individual with V30M TTR mutation, 800 mg b.i.d.
T3 construct: monitoring TTR serum concentrations in trial participants; from tissue; host or cells: serum / plasma of ATTR-CM patients
Description: (§5) Blood plasma samples from the subject are diluted with acidification buffer (sodium acetate, KCl, EDTA, DTT, pH about 4.0) for both the 0 and 72 hour time point. Time 0 hr samples are directly cross-linked with glutaraldehyde, and then quenched. 72 hr samples are incubated at room temperature for 72 hr and then cross-linked and quenched by the same protocol. All samples are then denatured by adding SDS gel loading buffer and boiled prior to gel loading. Each sample is separated in SDS-PAGE gels and analyzed by immunoblotting using anti-TTR antiserum (Polyclonal Rabbit Anti-Human Prealbumin. DAKO Cat# A0002). The density of all TTR bands are quantified using infrared LICOR imaging system or Fluorescence Imaging system and reported. Normalization by IgG band using LICOR 925-32232 or Invitrogen 84546.

[5] = Population PK analysis, effect of disease state and diuretics; type: in vivo, human
Excerpt: Thus, the final model retained disease state on the central volume of distribution.
Of the 17 subjects who were on placebo, 14 were on furosemide or torsemide.

tetrameric TTR [6] = biological target: T4, tetrameric TTR (Homo sapiens, UniProt P02766); test: Fluorescent Probe Exclusion (FPE) assay on serum of Phase 1 subjects; type: in vivo; set-up: from tissue; host or cells: serum / blood plasma of dosed healthy human volunteers; settings: single dose of 300 mg and 800 mg
Description: Aliquots of each serum sample are plated in 96 well plates. The fluorescence changes (λex=328 nm and λem=384 nm) after addition of probe are monitored every 15 min using a fluorescent capable microplate for 6 hr at RT.

tetrameric TTR [7] = biological target: T4, tetrameric TTR; test: Western blot for stabilization of tetrameric TTR, Phase 1 subjects; type: in vivo; set-up: from tissue; host or cells: serum / blood plasma of dosed healthy human volunteers; settings: 800 mg AG10 HCl q12h, day 12 predose (trough) and post dose (peak); 72h acidification
Description: as §5

[8] = biological target: human serum albumin (HSA) (Homo sapiens, UniProt P02768); test: Gel filtration and dialysis binding to human serum albumin; set-up: albumin from human serum; Sigma Aldrich, catalog no.: A3782; purchased Sigma Aldrich A3782; host or cells: human serum; settings: 30 μM compound, 600 μM albumin
Description: The concentration of HSA (i.e. concentration at time zero) was also determined using NanoDrop™ (based on calibration curves of known HAS concentrations). […] The concentration of test compounds in these fractions (i.e. conc. at time zero) was evaluated using HPLC (based on calibration curves of known concentration of test compounds). 500 μL of each HSA/test compound samples was then added to a Slide-A-Lyzer Dialysis Cassette G2 (3.5K MWCO, Thermo Scientific, catalog no. P187722). The dialysis Cassettes were placed in 100 ml of assay buffer and stirred at room temperature. After 24 hr, the samples were removed from dialysis cassette and the volume was measured. The concentration of HAS and test compounds were determined using NanoDrop™ and HPLC as described above.

TTR [9] = biological target: TTR (Homo sapiens, UniProt P02766); test: Phase 2 study in ATTR-CM patients, serum TTR concentration (ARUP Prealbumin assay); type: in vivo; set-up: monitoring TTR serum concentrations in trial participants; from tissue; host or cells: serum / plasma of ATTR-CM patients; settings: WT
Description: as §1, §2, §3, §4

Chain of human serum albumin (HSA) (P02768 25-609): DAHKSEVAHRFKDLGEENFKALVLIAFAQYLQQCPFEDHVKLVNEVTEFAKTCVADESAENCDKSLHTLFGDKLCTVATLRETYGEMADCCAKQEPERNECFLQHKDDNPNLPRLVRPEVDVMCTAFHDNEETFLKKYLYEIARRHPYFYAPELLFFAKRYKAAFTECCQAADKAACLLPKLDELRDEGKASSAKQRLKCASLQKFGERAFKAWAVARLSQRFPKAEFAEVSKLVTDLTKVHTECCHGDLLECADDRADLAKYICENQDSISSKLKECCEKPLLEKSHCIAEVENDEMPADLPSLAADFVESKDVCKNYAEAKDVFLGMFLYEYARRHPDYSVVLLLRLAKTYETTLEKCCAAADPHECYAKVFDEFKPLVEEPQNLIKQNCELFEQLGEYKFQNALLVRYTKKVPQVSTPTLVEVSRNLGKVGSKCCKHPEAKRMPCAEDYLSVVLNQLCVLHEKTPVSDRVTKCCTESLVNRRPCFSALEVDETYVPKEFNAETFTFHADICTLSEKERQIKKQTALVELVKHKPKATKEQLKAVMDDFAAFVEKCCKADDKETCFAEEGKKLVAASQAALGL

For `Cc1n[nH]c(C)c1CCCOc1cc(C(=O)O)ccc1F` [AG10, 3-(3-(3,5-dimethyl-1H-pyrazol-4-yl)propoxy)-4-fluorobenzoic acid], the “accumulation over 12 days of dosing” value ([1]; 100, 300, 800 mg every 12 hr for 12 days) was “No significant accumulation”, the Cmax ([1]; 100 mg, 100 mg q12 h, Day 1) was 8.67 µM and the Tmax ([1]; 100 mg, 100 mg q12 h, Day 1) was 47.6 min. It also gave an AUC(0-t) ([1]; 100 mg, 100 mg q12 h, Day 1) of 46.3 µM·h, a Cmax ([1]; 100 mg, 100 mg q12 h, Day 12) of 12.1 µM and a Tmax ([1]; 100 mg, 100 mg q12 h, Day 12) of 33.7 min. It also gave an AUC(0-t) ([1]; 100 mg, 100 mg q12 h, Day 12) of 70.3 µM·h, a Cmax ([1]; 300 mg, 300 mg q12 h, Day 1) of 14.3 µM and a Tmax ([1]; 300 mg, 300 mg q12 h, Day 1) of 42.4 min. It also gave an AUC(0-t) ([1]; 300 mg, 300 mg q12 h, Day 1) of 65.2 µM·h, a Cmax ([1]; 300 mg, 300 mg q12 h, Day 12) of 23.5 µM and a Tmax ([1]; 300 mg, 300 mg q12 h, Day 12) of 33.7 min. The AUC(0-t) ([1]; 300 mg, 300 mg q12 h, Day 12) was 97.7 µM·h, the Cmax ([1]; 800 mg, 800 mg q12 h, Day 1) was 31.8 µM and the Tmax ([1]; 800 mg, 800 mg q12 h, Day 1) was 47.6 min. For the same compound, the AUC(0-t) ([1]; 800 mg, 800 mg q12 h, Day 1) was 120 µM·h, the Cmax ([1]; 800 mg, 800 mg q12 h, Day 12) was 42.5 µM and the Tmax ([1]; 800 mg, 800 mg q12 h, Day 12) was 53.5 min. The AUC(0-t) ([1]; 800 mg, 800 mg q12 h, Day 12) was 159 µM·h, the “concentration at which complete occupancy is achieved” value (TTR in human serum) was ≥ 10 µM and the “Blood Serum TTR Concentration, Average Change” value (TTR [2]) was 61%. For the same compound, the “Blood Serum TTR Concentration, Average Change” value (TTR [3]; 400 mg b.i.d.) was 51%, the “Blood Serum TTR Concentration, Average Change (baseline to day 28)” value (TTR [3]; 400 mg b.i.d.) was 36% and the “Blood Serum TTR Concentration, Average Change” value (TTR [3]; 800 mg b.i.d.) was 90%. For the same compound, the “Blood Serum TTR Concentration, Average Change (baseline to day 28)” value (TTR [3]; 800 mg b.i.d.) was 50%, the “share of cohort with serum TTR concentrations within normal range (20-40 mg/dL)” value (TTR [3]; after 28 days of treatment, each active cohort (400 mg and 800 mg b.i.d.)) was 100% and the “TTR stabilization at day 28 (western blot)” value (tetrameric TTR [4]) was “near complete TTR stabilization”. The “circulating trough concentration that is a suitable target based on stabilization of TTR” value ([5]; Phase 1 MAD 3 (800 mg Q12h) and Phase 2 ATTR-CM patients) was ~8 µM, the “effect of commonly used diuretics on exposure” value ([5]; furosemide or torsemide co-administration) was “do not interfere with exposure” and the clearance ([5]; healthy adult volunteers in Phase 1 vs subjects in Phase 2, patient status or diuretics (furosemide/torsemide)) was “No difference in clearance”. The volume of distribution ([5]; subjects on furosemide/torsemide compared to healthy adult volunteers) was “lower”, the “stabilization of TTR at peak concentrations (FPE assay)” value (tetrameric TTR [6]) was “complete stabilization” and the “stabilization of tetrameric TTR (Western blot)” value (tetrameric TTR [7]) was “full stabilization of tetrameric TTR”. For the same compound, the “concentration bound to HSA following dialysis vs buffer for 24 hr” value [8] was 7.8 ± 0.1 µM, the “concentration bound to albumin at time 0 (immediately after gel filtration)” value [8] was 18.3 ± 0.98 µM and the “Blood Serum TTR Concentration, Average Change” value (TTR [9]; 400 mg b.i.d.) was 32%. The “Blood Serum TTR Concentration, Average Change” value (TTR [9]; 800 mg b.i.d.) was 35%.
